# Test results reported in ChEMBL document CHEMBL1201861, “Genomics of Drug Sensitity in Cancer screening data, Wellcome Trust Sanger Institute”.
# How the values were obtained:
# Experiment in all cases: cells
# HCC 2998 = type: functional, cell-based, Homo sapiens; settings: Homo sapiens, HCC 2998;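 also: growth inhibition of human HCC2998 cells, measured with a cell viability read-out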
# Description: SANGER: Inhibition of human HCC2998 cell growth in a cell viability assay.
# U2OS = type: functional, cell-based, Homo sapiens, U-2-OS; settings: Homo sapiens, U2OS;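 also: growth inhibition of human U-2-OS cells, determined with a cell viability assay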
# Description: SANGER: Inhibition of human U-2-OS cell growth in a cell viability assay.
# EM-2 = type: functional, cell-based; settings: Homo sapiens;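 also: growth inhibition of EM-2 cells, read out with a cell viability assay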
# Description: SANGER: Inhibition of human EM-2 cell growth in a cell viability assay.
# no-10 = type: functional, cell-based, Homo sapiens; settings: Homo sapiens;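 also: growth inhibition of no-10 cells, read out with a cell viability assay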
# Description: SANGER: Inhibition of human no-10 cell growth in a cell viability assay.
# NH-12 = type: functional, cell-based, Homo sapiens; settings: Homo sapiens, NH-12;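 also: growth inhibition of NH-12 cells, read out with a cell viability assay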
# Description: SANGER: Inhibition of human NH-12 cell growth in a cell viability assay.
# ES6 = type: functional, cell-based, Homo sapiens; settings: Homo sapiens, ES6;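 also: growth inhibition of human ES6 cells, read out with a cell viability assay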
# Description: SANGER: Inhibition of human ES6 cell growth in a cell viability assay.
# DB = type: functional, cell-based; settings: Homo sapiens
# Description: SANGER: Inhibition of human DB cell growth in a cell viability assay.
# MIA PaCa-2 = type: functional, cell-based, Homo sapiens; settings: Homo sapiens, MIA PaCa-2;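 also: growth inhibition of MIA PaCa-2 cells, read out with a cell viability assay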
# Description: SANGER: Inhibition of human MIA-PaCa-2 cell growth in a cell viability assay.
# SW780 = type: functional, cell-based, Homo sapiens; settings: Homo sapiens, SW780;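 also: growth inhibition of the cells, read out with a cell viability assay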
# Description: SANGER: Inhibition of human SW780 cell growth in a cell viability assay.
# MKN-7 = type: functional, cell-based, Homo sapiens; settings: Homo sapiens, MKN-7;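 also: growth inhibition of MKN-7 cells, read out with a cell viability assay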
# Description: SANGER: Inhibition of human MKN7 cell growth in a cell viability assay.
# A704 = type: functional, cell-based, Homo sapiens; settings: Homo sapiens, A704;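 also: growth inhibition of human A704 cells, read out with a cell viability assay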
# Description: SANGER: Inhibition of human A704 cell growth in a cell viability assay.
# RS4-11 = type: functional, cell-based; settings: Homo sapiens;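 also: growth inhibition of RS4-11 cells, read out by a cell viability assay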
# Description: SANGER: Inhibition of human RS4-11 cell growth in a cell viability assay.
# EW-16 = type: functional, cell-based, Homo sapiens; settings: Homo sapiens, EW-16;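 also: growth inhibition of human EW-16 cells, read out as cell viability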
# Description: SANGER: Inhibition of human EW-16 cell growth in a cell viability assay.
# NCI-H2052 = type: functional, cell-based, Homo sapiens; settings: Homo sapiens, NCI-H2052;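 also: growth inhibition of NCI-H2052 cells, read out with a cell viability assay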
# Description: SANGER: Inhibition of human NCI-H2052 cell growth in a cell viability assay.
# BXPC-3 = type: functional, cell-based, Homo sapiens; settings: Homo sapiens, BXPC-3;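 also: growth inhibition of human BxPC-3 cells, read out by a cell viability assay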
# Description: SANGER: Inhibition of human BxPC-3 cell growth in a cell viability assay.
# SN12C = type: functional, cell-based, Homo sapiens; settings: Homo sapiens, SN12C;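 also: growth inhibition of human SN12C cells, measured by a cell viability assay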
# Description: SANGER: Inhibition of human SN12C cell growth in a cell viability assay.
# KY821 = type: functional, cell-based; settings: Homo sapiens;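 also: growth inhibition of human KY821 cells, read out by a cell viability assay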
# Description: SANGER: Inhibition of human KY821 cell growth in a cell viability assay.
# A2058 = type: functional, cell-based; settings: Homo sapiens;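 also: reduction of A2058 cell growth, read out with a viability assay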
# Description: SANGER: Inhibition of human A2058 cell growth in a cell viability assay.
# 647-V = type: functional, cell-based, Homo sapiens; settings: Homo sapiens, 647-V;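 also: growth inhibition of 647-V cells, read out with a cell viability assay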
# Description: SANGER: Inhibition of human 647-V cell growth in a cell viability assay.
# NB6 = type: functional, cell-based, Homo sapiens; settings: Homo sapiens, NB6;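 also: growth inhibition of NB6 cells, read out by a cell viability assay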
# Description: SANGER: Inhibition of human NB6 cell growth in a cell viability assay.
# KINGS-1 = type: functional, cell-based, Homo sapiens; settings: Homo sapiens, KINGS-1;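 also: cell viability assay measuring suppression of KINGS-1 cell growth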
# Description: SANGER: Inhibition of human KINGS-1 cell growth in a cell viability assay.
# TE-6 = type: functional, cell-based, Homo sapiens; settings: Homo sapiens, TE-6;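 also: growth inhibition of TE-6 cells, read out with a cell viability assay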
# Description: SANGER: Inhibition of human TE-6 cell growth in a cell viability assay.
# D-263MG = type: functional, cell-based, Homo sapiens; settings: Homo sapiens, D-263MG
# Description: SANGER: Inhibition of human D-263MG cell growth in a cell viability assay.
# TE-11 = type: functional, cell-based, Homo sapiens; settings: Homo sapiens, TE-11;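 also: growth inhibition of human TE-11 cells, read out by a cell viability assay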
# Description: SANGER: Inhibition of human TE-11 cell growth in a cell viability assay.
# A 172 = type: functional, cell-based, Homo sapiens; settings: Homo sapiens, A 172;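 also: growth inhibition of A172 cells, measured with a cell viability readout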
# Description: SANGER: Inhibition of human A172 cell growth in a cell viability assay.
# NCI-N87 = type: functional, cell-based, Homo sapiens; settings: Homo sapiens, NCI-N87;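 also: growth inhibition of human NCI-N87 cells, read out with a cell viability assay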
# Description: SANGER: Inhibition of human NCI-N87 cell growth in a cell viability assay.
# DOK = type: functional, cell-based, Homo sapiens; settings: Homo sapiens, DOK;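 also: cell viability assay read-out, values reflect inhibition of cell growth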
# Description: SANGER: Inhibition of human DOK cell growth in a cell viability assay.
# OMC-1 = type: functional, cell-based, Homo sapiens; settings: Homo sapiens, OMC-1;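 also: growth inhibition of the OMC-1 cell line, measured by a cell viability assay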
# Description: SANGER: Inhibition of human OMC-1 cell growth in a cell viability assay.
# NCI-H727 = type: functional, cell-based, Homo sapiens; settings: Homo sapiens, NCI-H727;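 also: growth inhibition of human NCI-H727 cells, read out with a cell viability assay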
# Description: SANGER: Inhibition of human NCI-H727 cell growth in a cell viability assay.
# AM-38 = type: functional, cell-based, Homo sapiens; settings: Homo sapiens, AM-38;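 also: growth inhibition of AM-38 cells of human origin, read out by a cell viability assay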
# Description: SANGER: Inhibition of human AM-38 cell growth in a cell viability assay.
# LS-1034 = type: functional, cell-based, Homo sapiens; settings: Homo sapiens, LS-1034
# Description: SANGER: Inhibition of human LS-1034 cell growth in a cell viability assay.
# COLO-679 = type: functional, cell-based, Homo sapiens; settings: Homo sapiens, COLO-679
# Description: SANGER: Inhibition of human COLO-679 cell growth in a cell viability assay.
# TGBC1TKB = type: functional, cell-based, Homo sapiens; settings: Homo sapiens, TGBC1TKB;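 also: growth inhibition of TGBC1TKB cells, read out by a cell viability assay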
# Description: SANGER: Inhibition of human TGBC1TKB cell growth in a cell viability assay.
# EOL1 = type: functional, cell-based; settings: Homo sapiens;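 also: growth inhibition of EoL-1 cells, read out by a cell viability assay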
# Description: SANGER: Inhibition of human EoL-1-cell cell growth in a cell viability assay.
# DOHH-2 = type: functional, cell-based; settings: Homo sapiens;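 also: growth inhibition of human DOHH-2 cells, read out with a cell viability assay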
# Description: SANGER: Inhibition of human DOHH-2 cell growth in a cell viability assay.
# SW 962 = type: functional, cell-based, Homo sapiens; settings: Homo sapiens, SW 962;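 also: growth inhibition of human SW962 cells, read out by a cell viability assay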
# Description: SANGER: Inhibition of human SW962 cell growth in a cell viability assay.
# GAMG = type: functional, cell-based, Homo sapiens; settings: Homo sapiens, GAMG;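 also: cell growth inhibition measured by a viability assay in the GAMG human cell line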
# Description: SANGER: Inhibition of human GAMG cell growth in a cell viability assay.
# SW1710 = type: functional, cell-based, Homo sapiens; settings: Homo sapiens, SW1710;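 also: growth inhibition of SW1710 cells, determined with a cell viability assay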
# Description: SANGER: Inhibition of human SW1710 cell growth in a cell viability assay.
# COLO-824 = type: functional, cell-based, Homo sapiens; settings: Homo sapiens, COLO-824
# Description: SANGER: Inhibition of human COLO-824 cell growth in a cell viability assay.
# MHH-NB-11 = type: functional, cell-based, Homo sapiens; settings: Homo sapiens, MHH-NB-11;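 also: growth inhibition of human MHH-NB-11 cells, read out by a cell viability assay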
# Description: SANGER: Inhibition of human MHH-NB-11 cell growth in a cell viability assay.
# HOP-92 = type: functional, cell-based, Homo sapiens; settings: Homo sapiens, HOP-92;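 also: cell viability readout, with IC50 reflecting inhibition of HOP-92 cell growth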
# Description: SANGER: Inhibition of human HOP-92 cell growth in a cell viability assay.
# SK-MES-1 = type: functional, cell-based, Homo sapiens; settings: Homo sapiens, SK-MES-1;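 also: growth inhibition of human SK-MES-1 cells, read out with a cell viability assay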
# Description: SANGER: Inhibition of human SK-MES-1 cell growth in a cell viability assay.
# SW 954 = type: functional, cell-based, Homo sapiens; settings: Homo sapiens, SW 954;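 also: growth inhibition of SW954 human cancer cells, read out as cell viability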
# Description: SANGER: Inhibition of human SW954 cell growth in a cell viability assay.
# UMC-11 = type: functional, cell-based, Homo sapiens; settings: Homo sapiens, UMC-11;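 also: growth inhibition of UMC-11 cells, read out with a cell viability assay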
# Description: SANGER: Inhibition of human UMC-11 cell growth in a cell viability assay.
# COLO-320-HSR = type: functional, cell-based; settings: Homo sapiens;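 also: growth inhibition of COLO-320-HSR cells, determined with a cell viability assay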
# Description: SANGER: Inhibition of human COLO-320-HSR cell growth in a cell viability assay.
# HT = type: functional, cell-based; settings: Homo sapiens
# Description: SANGER: Inhibition of human HT cell growth in a cell viability assay.
# SBC-5 = type: functional, cell-based, Homo sapiens; settings: Homo sapiens, SBC-5;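 also: cell viability assay read-out, IC50 is the concentration that inhibits growth of the cells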
# Description: SANGER: Inhibition of human SBC-5 cell growth in a cell viability assay.
# GR-ST = type: functional, cell-based; settings: Homo sapiens
# Description: SANGER: Inhibition of human GR-ST cell growth in a cell viability assay.
# NCI-H2030 = type: functional, cell-based, Homo sapiens; settings: Homo sapiens, NCI-H2030;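 also: growth inhibition of human NCI-H2030 cells, read out by a cell viability assay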
# Description: SANGER: Inhibition of human NCI-H2030 cell growth in a cell viability assay.
# KM12 = type: functional, cell-based, Homo sapiens; settings: Homo sapiens, KM12;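 also: KM12 cell growth inhibition, read out with a cell viability assay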
# Description: SANGER: Inhibition of human KM12 cell growth in a cell viability assay.
# SW837 = type: functional, cell-based, Homo sapiens; settings: Homo sapiens, SW837;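 also: growth inhibition of SW837 cells, determined with a cell viability assay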
# Description: SANGER: Inhibition of human SW837 cell growth in a cell viability assay.
# HCC1569 = type: functional, cell-based, Homo sapiens; settings: Homo sapiens, HCC1569;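 also: growth inhibition of human HCC1569 cells, read out with a cell viability assay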
# Description: SANGER: Inhibition of human HCC1569 cell growth in a cell viability assay.
smiles,measurement,setting,value
Cc1cnc(-c2cnc(NCCNc3ccc(C#N)cn3)nc2-c2ccc(Cl)cc2Cl)[nH]1 [LADUVIGLUSIB],IC50,HCC 2998,> 2560 nM
same,IC50,U2OS,> 2560 nM
same,IC50,EM-2,> 2560 nM
same,IC50,no-10,> 2560 nM
same,IC50,NH-12,> 2560 nM
same,IC50,ES6,> 2560 nM
same,IC50,DB,> 2560 nM
same,IC50,MIA PaCa-2,1760 nM
same,IC50,SW780,> 2560 nM
same,IC50,MKN-7,> 2560 nM
same,IC50,A704,> 2560 nM
same,IC50,RS4-11,1950 nM
same,IC50,EW-16,> 2560 nM
same,IC50,NCI-H2052,> 2560 nM
same,IC50,BXPC-3,> 2560 nM
same,IC50,SN12C,> 2560 nM
same,IC50,KY821,> 2560 nM
same,IC50,A2058,> 2560 nM
same,IC50,647-V,> 2560 nM
same,IC50,NB6,> 2560 nM
same,IC50,KINGS-1,> 2560 nM
same,IC50,TE-6,> 2560 nM
same,IC50,D-263MG,> 2560 nM
same,IC50,TE-11,> 2560 nM
same,IC50,A 172,> 2560 nM
same,IC50,NCI-N87,> 2560 nM
same,IC50,DOK,> 2560 nM
same,IC50,OMC-1,> 2560 nM
same,IC50,NCI-H727,> 2560 nM
same,IC50,AM-38,> 2560 nM
same,IC50,LS-1034,> 2560 nM
same,IC50,COLO-679,> 2560 nM
same,IC50,TGBC1TKB,> 2560 nM
same,IC50,EOL1,> 2560 nM
same,IC50,DOHH-2,> 2560 nM
same,IC50,SW 962,> 2560 nM
same,IC50,GAMG,> 2560 nM
same,IC50,SW1710,> 2560 nM
same,IC50,COLO-824,> 2560 nM
same,IC50,MHH-NB-11,> 2560 nM
same,IC50,HOP-92,> 2560 nM
same,IC50,SK-MES-1,> 2560 nM
same,IC50,SW 954,> 2560 nM
same,IC50,UMC-11,> 2560 nM
same,IC50,COLO-320-HSR,> 2560 nM
same,IC50,HT,> 2560 nM
same,IC50,SBC-5,> 2560 nM
same,IC50,GR-ST,> 2560 nM
same,IC50,NCI-H2030,> 2560 nM
same,IC50,KM12,> 2560 nM
same,IC50,SW837,> 2560 nM
same,IC50,HCC1569,> 2560 nM
C[C@]1(O)C[C@@H](c2nc(-c3ccc4ccc(-c5ccccc5)nc4c3)c3c(N)nccn32)C1 [LINSITINIB],IC50,HCC 2998,883 nM
same,IC50,U2OS,> 2560 nM
same,IC50,EM-2,> 2560 nM
same,IC50,no-10,> 2560 nM
same,IC50,NH-12,760 nM
same,IC50,ES6,911 nM
same,IC50,DB,> 2560 nM
same,IC50,MIA PaCa-2,> 2560 nM
same,IC50,SW780,> 2560 nM
same,IC50,MKN-7,> 2560 nM
same,IC50,A704,> 2560 nM
same,IC50,RS4-11,338 nM
same,IC50,EW-16,188 nM
same,IC50,NCI-H2052,> 2560 nM
same,IC50,BXPC-3,> 2560 nM
same,IC50,SN12C,> 2560 nM
same,IC50,KY821,> 2560 nM
same,IC50,A2058,> 2560 nM
same,IC50,647-V,> 2560 nM
same,IC50,NB6,> 2560 nM
same,IC50,KINGS-1,> 2560 nM
same,IC50,TE-6,> 2560 nM
same,IC50,D-263MG,> 2560 nM
same,IC50,TE-11,78.2 nM
same,IC50,A 172,> 2560 nM
same,IC50,NCI-N87,> 2560 nM
same,IC50,DOK,556 nM
same,IC50,OMC-1,> 2560 nM
same,IC50,NCI-H727,198 nM
same,IC50,AM-38,> 2560 nM
same,IC50,LS-1034,271 nM
same,IC50,COLO-679,> 2560 nM
same,IC50,TGBC1TKB,> 2560 nM
same,IC50,EOL1,> 2560 nM
same,IC50,DOHH-2,> 2560 nM
same,IC50,SW 962,> 2560 nM
same,IC50,GAMG,> 2560 nM
same,IC50,SW1710,> 2560 nM
same,IC50,COLO-824,> 2560 nM
same,IC50,MHH-NB-11,> 2560 nM
same,IC50,HOP-92,> 2560 nM
same,IC50,SK-MES-1,> 2560 nM
same,IC50,SW 954,> 2560 nM
same,IC50,UMC-11,> 2560 nM
same,IC50,COLO-320-HSR,414 nM
same,IC50,HT,> 2560 nM
same,IC50,SBC-5,> 2560 nM
same,IC50,GR-ST,> 2560 nM
same,IC50,NCI-H2030,> 2560 nM
same,IC50,KM12,> 2560 nM
same,IC50,SW837,> 2560 nM
same,IC50,HCC1569,> 2560 nM
